Data taken from patent US20050049294A1, “Methods of using [3.2.0] heterocyclic compounds and analogs thereof” (priority 2003, published 2005).
Read-outs that look alike come from different tables or passages of the source. Peptide text beside a SMILES is read from it. * marks the point of attachment. Cbz = O=C(OCc1ccccc1)*

Columns and labels:
[1] = test system: LeTx-induced cytotoxicity of RAW264.7 cells; settings: read-out: EC50 concentrations in the LeTx assay; cited from earlier work
[2] = test system: Jurkat cells; assay: Cytotoxicity against Jurkat cells; format: cell-based, human; settings: Table 5, Jurkat Cells
[3] = test system: HL-60 cells; assay: Cell growth inhibition (resazurin, 48 hours), HL-60
Source text: (§1) The DNA binding agent Mitoxantrone was included as a control, as HL-60/MX2 cells are reported to be resistant to this chemotherapeutic agent (Harker W. G. et al. 1989).

[4] = test system: HL-60/MX2 cells; assay: cells; settings: for EC50: Homo sapiens, HL60/MX2, read-out: EC50 (nM) HL-60/MX2, Table 17
Source text: as §1

[5] = target: T1, chymotrypsin-like activity of rabbit muscle 20S proteasomes (Oryctolagus cuniculus, UniProt G1T4Q9); assay: Inhibition of chymotrypsin-like activity of purified rabbit muscle 20S proteasome (suc-LLVY-AMC); format: biochemical
T1 sequence (G1T4Q9 1-263): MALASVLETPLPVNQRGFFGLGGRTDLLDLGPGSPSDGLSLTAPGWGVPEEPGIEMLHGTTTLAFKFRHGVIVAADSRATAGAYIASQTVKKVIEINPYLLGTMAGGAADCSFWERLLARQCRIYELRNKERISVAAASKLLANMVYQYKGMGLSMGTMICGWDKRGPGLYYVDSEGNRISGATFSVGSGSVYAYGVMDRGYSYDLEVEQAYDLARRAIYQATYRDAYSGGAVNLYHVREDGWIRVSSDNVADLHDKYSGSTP
Description: This peptide substrate is specific for the chymotrypsin-like enzyme activity of the proteasome.
Omuralide was prepared as a 10 mM stock in DMSO and stored in 5 μL aliquots at −80° C. […] The assay measures the hydrolysis of Suc-LLVY-AMC into Suc-LLVY and AMC. The released coumarin (AMC) was measured fluorometrically by using λex=390 nm and λem=460 nm. The assays were performed in a microtiter plate (Corning 3904), and followed kinetically with measurements every five minutes. The instrument used was a Thermo Lab Systems Fluoroskan, with the incubation chamber set to 37° C. The assays were performed according to the manufacturer's protocol, with the following changes. The proteasome was activated as described with SDS, and held on ice prior to the assay. […] Ten microliters of each dose were added in triplicate to the assay plate, and 190 μL of the activated proteasome was added and mixed. The samples were pre-incubated in the Fluoroskan for 5 minutes at 37° C. Substrate was added and the kinetics of AMC were followed for one hour.

[6] = target: PGPH (caspase-like) activity of rabbit muscle 20S proteasomes (Oryctolagus cuniculus, UniProt A0A5F9DQW2); assay: Inhibition of caspase-like (PGPH) activity of 20S proteasome (Z-LLE-AMC); format: biochemical; settings: Table 3; mean EC50; purified rabbit 20S proteasomes
Description: A commercially available fluorogenic substrate specific for the PGPH activity was used instead of the chymotrypsin substrate supplied in the proteasome assay kit described above.
The substrate Z-LLE-AMC was prepared as a 20 mM stock solution in DMSO, stored at −20° C. The source of the proteasomes was the commercially available kit from Calbiochem (Cat. #539158). As with the chymotrypsin substrate, the proteasome can cleave Z-LLE-AMC into Z-LLE and free AMC. The activity can then be determined by measuring the fluorescence of the released AMC (λex=390 nm and λem=460 nm). The proteasomes were activated with SDS and held on ice as per manufacturer's recommendation. […] The series was diluted 20-fold with assay buffer and preincubated with the proteasomes as described for the chymotrypsin-like activity. After addition of substrate, the samples were incubated at 37° C., and release of the fluorescent AMC was monitored in a fluorimeter. All data were collected and plotted as the mean of triplicate points. […] As before, the model chosen was a sigmoidal dose-response, with a variable slope.

[7] = test system: B16-F10 cells; assay: Cell growth inhibition (resazurin, 48 hours), B16-F10; format: cell-based, mouse; settings: Mus musculus, B16-F10, Table 13; B16-F10
[8] = test system: HT-29 cells; assay: Cell growth inhibition (resazurin, 48 hours), HT-29; format: cell-based; settings: Homo sapiens, HT-29
[9] = test system: MDA-MB-231 cells; assay: Cell growth inhibition (resazurin, 48 hours), MDA-MB-231; format: cell-based; settings: Homo sapiens, MDA-MB-231
[10] = test system: NCI-H292 cells; assay: Cell growth inhibition (resazurin, 48 hours), NCI-H292; format: cell-based, human; settings: Homo sapiens, NCI-H292
[11] = test system: OVCAR-3 cells; assay: Cell growth inhibition (resazurin, 48 hours), OVCAR-3; format: cell-based, human; settings: Homo sapiens, OVCAR-3, Table 13; OVCAR-3
[12] = test system: PC-3 cells; assay: Cell growth inhibition (resazurin, 48 hours), PC-3; format: cell-based, human; settings: Homo sapiens, PC-3
[13] = test system: RPMI 8226 cells; assay: Cell growth inhibition (resazurin, 48 hours), RPMI 8226
[14] = test system: MES-SA cells; assay: Cell growth inhibition (resazurin, 48 hours), MES-SA; settings: Homo sapiens, MES-SA, read-out: EC50 (nM) MES-SA, Table 16
[15] = test system: MES-SA/Dx5 cells; assay: cells; settings: Homo sapiens, MES-SA/Dx5, read-out: EC50 (nM) MES-SA/Dx5, Table 16
[16] = target: T2, trypsin-like activity of purified rabbit 20S proteasomes (Oryctolagus cuniculus, UniProt G1SWK8); settings: under the conditions tested
T2 sequence (G1SWK8 1-271): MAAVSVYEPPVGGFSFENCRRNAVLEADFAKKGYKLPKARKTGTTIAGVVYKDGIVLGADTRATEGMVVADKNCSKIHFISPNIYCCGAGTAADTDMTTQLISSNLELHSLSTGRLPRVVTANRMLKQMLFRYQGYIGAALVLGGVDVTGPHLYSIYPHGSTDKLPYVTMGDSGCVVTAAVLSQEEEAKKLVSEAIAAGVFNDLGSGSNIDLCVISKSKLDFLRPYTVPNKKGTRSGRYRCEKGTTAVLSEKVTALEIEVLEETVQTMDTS

[17] = test system: LeTx-induced cytotoxicity of RAW264.7 cells; assay: cells; settings: Mus musculus, RAW264.7, read-out: EC50 (nM), inhibition of RAW 264.7 cell cytotoxicity mediated by anthrax lethal toxin
[18] = target: T2, trypsin-like activity of purified rabbit 20S proteasomes; assay: biochemical
[19] = test system: U266 cells; assay: Cell growth inhibition (resazurin, 48 hours), U266
[20] = test system: NF-κB-mediated luciferase activity in HEK293 NF-κB/Luc cells; assay: NF-κB-mediated luciferase reporter gene assay; format: cell-based, human; settings: for luciferase activity upon TNF-α stimulation: pretreatment of NF-κB/Luc 293 cells
Description: (§2) The HEK293 NF-κB/luciferase reporter cell line is a derivative of the human embryonic kidney cell line (ATCC; CRL- 1573) and carries a luciferase reporter gene under the regulation of 5×NF-κB binding sites. […] When performing the luciferase assay, the DMEM basal medium was replaced with phenol-red free DMEM basal medium and the G418 was omitted.
For NF-κB-mediated luciferase assays, HEK293 NF-κB/luciferase cells were seeded at 1.5×10^4 cells/well in 90 μl phenol-red free DMEM complete medium into Corning 3917 white opaque-bottom tissue culture plates. […] This dilution series was further diluted 40× in appropriate culture medium and ten μl aliquots were added to the test wells in triplicate resulting in final test concentrations ranging from 1 μM to 320 pM. […] For Formula II-19, a 127 μM starting dilution was made in 100% DMSO and the final test concentrations ranging from 317 nM to 0.1 nM. […] After 1 hr pretreatment, 10 μl of a 50 ng/ml TNF-α solution, prepared in the phenol-red free DMEM medium was added, and the plates were incubated for an additional 6 hr.
NF-κB inducible luciferase activity was measured at 6 hours.
as §2, with “CRL-1573)” for “CRL- 1573)”
For NF-κB-mediated luciferase assays, HEK293 NF-κB/luciferase cells were seeded at 1.5×10^4 cells/well in 90 μl phenol-red free DMEM complete medium into Corning 3917 white opaque-bottom tissue culture plates. For Formula II-2, Formula II-4 and Formula II-5A, a 400 μM starting dilution was made in 100% DMSO and this dilution was used to generate a 8-point half log dilution series. This dilution series was further diluted 40× in appropriate culture medium and ten μl aliquots were added to the test wells in triplicate resulting in final test concentrations ranging from 1 μM to 320 pM. […] After 1 hr pretreatment, 10 μl of a 50 ng/ml TNF-α solution, prepared in the phenol-red free DMEM medium was added, and the plates were incubated for an additional 6 hr.
The relative luciferase units (RLU) were measured by using a Fusion microplate fluorometer (Packard Bioscience).

[21] = test system: LeTx-induced cytotoxicity of RAW264.7 cells; settings: 1 μM
[22] = Homo sapiens, HL-60, read-out: EC50 (nM) HL-60, Table 17
[23] = Table 3, mean EC50, purified rabbit 20S proteasomes, read-out: EC50 Values, Chymotrypsin-like
[24] = representative experiment, Example 44 (FIG. 46, 47), read-out: EC50, chymotrypsin-like activity of the proteasome
[25] = Homo sapiens, RPMI-8226, Table 13, RPMI 8226
[26] = Homo sapiens, U-266, Table 13, U266

Chain of PGPH (caspase-like) activity of rabbit muscle 20S proteasomes (A0A5F9DQW2 1-212): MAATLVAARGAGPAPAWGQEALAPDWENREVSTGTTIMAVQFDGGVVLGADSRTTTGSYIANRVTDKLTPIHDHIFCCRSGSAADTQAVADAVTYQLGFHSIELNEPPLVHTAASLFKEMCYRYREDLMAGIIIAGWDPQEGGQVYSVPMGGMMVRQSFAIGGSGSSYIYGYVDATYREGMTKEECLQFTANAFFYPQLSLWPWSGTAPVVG

CC(=O)N[C@@H](CSC(=O)[C@]1([C@@H](O)C(C)C)NC(=O)[C@H](C)[C@@H]1O)C(=O)O [Lactacystin]
EC50 [1]: 3000 nM

O=C1c2c(O)ccc(O)c2C(=O)c2c(NCCNCCO)ccc(NCCNCCO)c21 [Mitoxantrone, reference compound]
EC50 ([2]; Homo sapiens, read-out: EC50): 50 nM
% max cell kill [2]: 99%
EC50 [3, 22]: 42 nM
EC50 ([3]; read-out: EC50 (nM) HL-60, Table 17): 40 nM
EC50 [4]: 1340 nM
Fold change ([4]; Table 17, ratio of EC50 values (HL-60/MX2:HL-60)): 30.6 fold

CC[C@H]1C(=O)N[C@@]2([C@@H](O)C3CCCCC3)C(=O)O[C@@]12C [Formula II-3]
EC50 [5, 23]: 927 nM
EC50 [5, 24]: 890 nM
EC50 [6]: > 20000 nM
EC50 [7]: > 20000 nM
EC50 [8]: > 20000 nM
EC50 [9]: > 20000 nM
EC50 ([10]; NCI-H292, Table 13): > 20000 nM
EC50 [11]: > 20000 nM
EC50 [12]: > 20000 nM
EC50 [13, 25]: > 20000 nM
EC50 [14]: > 20000 nM
EC50 [15]: > 20000 nM
EC50 [3, 22]: > 20000 nM
EC50 [4]: > 20000 nM
inhibit the trypsin-like activity of the 20S proteasome [16]: able to inhibit
EC50 [17]: > 330 nM
EC50 [18]: 6600 nM
EC50 [19, 26]: > 20000 nM

C[C@@]12OC(=O)[C@]1([C@@H](O)[C@H]1CCC[C@@H]3O[C@H]13)NC(=O)[C@@H]2CCCl [Formula II-5B]
EC50 [5, 23]: 87 nM
EC50 [5, 24]: 88 nM
EC50 [6]: 3300 nM
EC50 ([20]; Homo sapiens, HEK293, representative experiment, Example 43 (FIG. 44, 45), read-out: calculated EC50 to inhibit NF-κB inducible luciferase activity): 261 nM
luciferase activity upon TNF-α stimulation [20]: dose-dependent decrease
EC50 ([8]; Table 13, read-out: EC50): 1070 nM
EC50 ([9]; Table 13, read-out: EC50): 1040 nM
EC50 ([10]; Table 13, read-out: EC50): > 20000 nM
EC50 ([12]; Table 13, read-out: EC50): 1330 nM
EC50 [13, 25]: 326 nM
EC50 ([13]; Homo sapiens, RPMI-8226, read-out: RPMI 8226 EC50 (nM), Table 15, mean EC50): 327 nM
EC50 ([13]; Table 13, RPMI 8226): 328 nM
inhibit the trypsin-like activity of the 20S proteasome [16]: able to inhibit
EC50 [17]: 45 nM
EC50 [18]: 739 nM
EC50 [19, 26]: 118 nM
EC50 ([19]; Homo sapiens, U-266, read-out: U266 EC50 (nM), Table 15, mean EC50): 115 nM
EC50 ([19]; Table 13, U266): 111 nM

CC[C@H]1C(=O)N[C@@]2([C@@H](O)[C@@H]3C=CCCC3)C(=O)O[C@@]12C [Formula II-17]
luciferase activity upon TNF-α stimulation [20]: dose-dependent decrease
EC50 [8]: > 20000 nM
EC50 [9]: 5900 ± 601 nM
EC50 ([10]; NCI-H292, Table 13): > 20000 nM
EC50 [11]: > 20000 nM
EC50 [12]: > 20000 nM
EC50 [14]: 9230 nM
EC50 [15]: 9450 nM
EC50 [3, 22]: > 20000 nM
EC50 [4]: > 20000 nM
inhibit the trypsin-like activity of the 20S proteasome [16]: able to inhibit
EC50 [17]: 42 nM
EC50 [18]: 588 nM

CC(C)[C@H](O)[C@@]12NC(=O)[C@H](C)[C@@H]1OC2=O [Omuralide, reference compound]
EC50 ([5]; Calbiochem 20S Proteasome Kit, Example 21, read-out: average EC50 in the two assays, chymotrypsin-like activity): 52 nM
EC50 ([5]; first experiment, Example 21, read-out: EC50, average value in the 20S proteasome assay (FIG. 27)): 49 nM
viability, compound + LeTx [21]: 37%

CC(C)C[C@@H](C=O)NC(=O)[C@H](CC(C)C)NC(=O)[C@H](CC(C)C)NC(=O)OCc1ccccc1 [MG132] (Cbz-Leu-Leu-Leu-aldehyde)
EC50 [1]: 3000 nM
